Assay results: paper PMC5735191, “Computational and biological profile of boronic acids for the detection of bacterial serine- and metallo-β-lactamases” (Scientific Reports, 2017)
“And” between values parts separate entries of the source, which are not always exact repeats. Equal values may be shown once.

Tests used:
[1] = biological target: T1, AmpC β-lactamase (Pseudomonas aeruginosa, UniProt P24735); test: Enzyme inhibition assay (spectrophotometric, cephalothin reporter substrate); format: biochemical, P. aeruginosa; settings: mean of two replicates, five inhibitor concentrations, Dixon plot, 100 μM cephalothin, pH 7.5, 25 °C
T1 construct: made in house; host or cells: E. coli BL21(DE3), plasmid pET-9aAmpC
T1 sequence (P24735 27-397): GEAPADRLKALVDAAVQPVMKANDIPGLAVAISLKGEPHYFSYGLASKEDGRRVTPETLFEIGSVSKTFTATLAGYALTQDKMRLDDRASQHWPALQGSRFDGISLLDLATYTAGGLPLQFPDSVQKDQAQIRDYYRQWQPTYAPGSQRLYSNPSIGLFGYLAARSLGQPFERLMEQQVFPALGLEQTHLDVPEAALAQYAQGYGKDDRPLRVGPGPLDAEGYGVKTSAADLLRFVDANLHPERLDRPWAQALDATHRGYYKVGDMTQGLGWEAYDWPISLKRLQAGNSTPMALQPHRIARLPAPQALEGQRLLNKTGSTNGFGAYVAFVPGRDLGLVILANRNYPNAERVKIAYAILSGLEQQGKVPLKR
Method: (§1) To obtain a well-characterized inhibition profile for each selected boronic acids against each BLs in the panel, the compounds were tested for inhibitory activity. The protein panel included clinically- and epidemiologically-relevant β-lactamases, representatives of each structural class (A to D), as mentioned above. Each BL was overexpressed in E. coli, purified by chromatography and characterized as already reported. (SI, Table S1)[40]–[45].
(§2) Reactions were initiated with addition of BL enzyme (the concentration values for each BL enzyme into the SI, Table S1 have been reported).
(§3) From the resulting inhibition percentages at each different inhibitor concentration and, assuming a competitive inhibition for the boronic compounds panel, it was possible to calculate the IC50 values from the Dixon plot 1/V vs [I], using the equation IC50 = […][61], where v0 is the rate of hydrolysis of the reporter substrate (v0 being the rate measured in the absence of inhibitor), q the y axis intercept and m the slope of the resulting linear regression.

[2] = biological target: T2, CTX-M-15 (Escherichia coli, UniProt Q9EXV5); test: as above; format: biochemical; settings: IC50 CTX-M-15, mean of two replicates, five inhibitor concentrations, Dixon plot; pH 7.5, 25 °C
T2 construct: made in house; host or cells: E. coli BL21(DE3), pET-9a derivative (pET-CTX-M-15)
T2 sequence (Q9EXV5 entry or part of it): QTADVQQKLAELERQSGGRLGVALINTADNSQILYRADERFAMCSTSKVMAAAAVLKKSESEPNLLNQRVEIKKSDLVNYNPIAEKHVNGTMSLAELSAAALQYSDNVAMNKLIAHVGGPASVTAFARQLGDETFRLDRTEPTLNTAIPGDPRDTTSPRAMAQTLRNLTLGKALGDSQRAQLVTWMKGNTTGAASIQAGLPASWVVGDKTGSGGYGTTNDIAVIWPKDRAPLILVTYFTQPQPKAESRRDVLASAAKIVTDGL
Method: as §1, §2, §3

[3] = biological target: T3, OXA-24 (Acinetobacter baumannii, UniProt Q8RLA6); test: as above; format: biochemical
T3 construct: GST (N, cleaved yes); made in house; host or cells: E. coli DH5α, pGEX-2T-OXA-24
T3 sequence (Q8RLA6 22-275 limits assumed): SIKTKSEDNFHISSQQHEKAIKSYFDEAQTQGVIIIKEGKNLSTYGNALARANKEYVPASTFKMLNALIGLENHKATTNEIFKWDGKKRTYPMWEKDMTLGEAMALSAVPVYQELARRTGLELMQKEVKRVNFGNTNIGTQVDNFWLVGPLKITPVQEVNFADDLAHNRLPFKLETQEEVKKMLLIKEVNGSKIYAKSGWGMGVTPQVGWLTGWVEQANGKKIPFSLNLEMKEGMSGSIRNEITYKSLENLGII
Method: as §1, §2, §3

[4] = biological target: T4, KPC-2 (Klebsiella pneumoniae, UniProt Q9F663); test: as above; format: biochemical; settings: mean of two replicates, five inhibitor concentrations, Dixon plot; pH 7.5, 25 °C
T4 construct: made in house; host or cells: E. coli BL21(DE3), pET9-KPC2
T4 sequence (Q9F663 25-293 limits assumed): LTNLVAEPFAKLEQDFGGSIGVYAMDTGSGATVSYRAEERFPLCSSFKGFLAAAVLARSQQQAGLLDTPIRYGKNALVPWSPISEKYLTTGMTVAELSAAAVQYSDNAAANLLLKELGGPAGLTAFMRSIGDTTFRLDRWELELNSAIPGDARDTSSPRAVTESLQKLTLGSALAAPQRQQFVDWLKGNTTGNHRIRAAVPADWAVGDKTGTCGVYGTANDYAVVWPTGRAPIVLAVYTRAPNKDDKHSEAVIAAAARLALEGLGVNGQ
Method: as §1, §2

[5] = tested on: E. coli clinical isolate, overproduction chromosomal AmpC; test: Susceptibility testing (MIC), synergy with ceftazidime; format: cell-based; settings: antibiotic:inhibitor 1:1 (w/w)
Method: (§4) The minimum inhibitory concentrations (MICs), for CAZ and CTX alone and in combination with boronic acids against resistant strains were determined (Table 2a,b).
(§5) Susceptibility testing was performed in Mueller Hinton broth and interpreted following the guidelines of the National Committee for Clinical Laboratory Standards[70]. To test the inhibitory activity, the compounds were dissolved in DMSO, 50% in water, and further dilutions were performed using growth medium. In all cases tests were performed at a final DMSO concentration below 5%, avoiding unwanted DMSO inhibition effect on strains growth (blank test control with DMSO were performed). The MICs of cefotaxime and ceftazidime alone and in association were determined against several relevant Gram-negative clinical isolates, selected from the pathogen collection of the Spanish Network for Research in Infectious Pathology (REIPI; Spain). The selection was based on strains capability of producing β-lactamases of interest for the present study. The antibiotic:inhibitor ratio was 1:1 (w/w).

[6] = tested on: E. coli clinical isolate, plasmidic AmpC - DHA1; test: as above; format: cell-based; settings: for MIC of ceftazidime (CAZ) in combination with compound: E. coli, plasmidic AmpC - DHA1, antibiotic:inhibitor 1:1 (w/w)
Method: as §4, §5

[7] = tested on: P. aeruginosa 12, overproduction chromosomal AmpC; test: as above; format: cell-based; settings: antibiotic:inhibitor 1:1 (w/w)
Method: as §4, §5

[8] = tested on: P. aeruginosa 120, overproduction chromosomal AmpC; test: as above; format: cell-based; settings: antibiotic:inhibitor 1:1 (w/w)
Method: as §4, §5

[9] = tested on: P. aeruginosa 148, overproduction chromosomal AmpC; test: as above; format: cell-based; settings: antibiotic:inhibitor 1:1 (w/w)
Method: as §4, §5

[10] = tested on: P. aeruginosa 199, overproduction chromosomal AmpC; test: as above; format: cell-based; settings: antibiotic:inhibitor 1:1 (w/w)
Method: as §4, §5

[11] = tested on: P. aeruginosa 49, overproduction chromosomal AmpC; test: as above; format: cell-based; settings: antibiotic:inhibitor 1:1 (w/w)
Method: as §4, §5

[12] = tested on: CTX-M-15 E. coli clinical isolate; test: Susceptibility testing (MIC), synergy with cefotaxime; format: cell-based; settings: for MIC of cefotaxime (CTX) in combination with compound: CTX-M-15 E. coli, antibiotic:inhibitor 1:1 (w/w)
Method: as §4, §5

[13] = tested on: KPC-2 K. pneumoniae clinical isolate; test: as above; format: cell-based; settings: for MIC of cefotaxime (CTX) in combination with compound: KPC-2 K. pneumoniae, antibiotic:inhibitor 1:1 (w/w)
Method: as §4, §5

[14] = tested on: NDM-1 E. coli clinical isolate; test: as above; format: cell-based; settings: antibiotic:inhibitor 1:1 (w/w)
Method: as §4, §5

[15] = tested on: OXA-24 A. baumanii clinical isolate; test: as above; format: cell-based; settings: antibiotic:inhibitor 1:1 (w/w)
Method: as §4, §5

[16] = tested on: VIM-2 P. aeruginosa clinical isolate; test: as above; format: cell-based; settings: antibiotic:inhibitor 1:1 (w/w)
Method: as §4, §5

[17] = biological target: VIM-2 (Escherichia coli, UniProt Q5U7L7); test: Enzyme inhibition assay (spectrophotometric, cephalothin reporter substrate); format: biochemical; design: made in house; host or cells: E. coli BL21(DE3), pET9-VIM-2; settings: mean of two replicates, five inhibitor concentrations, Dixon plot; pH 7.5, 25 °C
Method: as §1, §2

[18] = biological target: NDM-1 (Klebsiella pneumoniae, UniProt C7C422); test: as above; format: biochemical; design: His-tag; made in house; host or cells: E. coli BL21(DE3), pET-15-NDM-1; settings: mean of two replicates, five inhibitor concentrations, Dixon plot; pH 7.5, 25 °C
Chain of NDM-1 (C7C422 29-270 limits assumed): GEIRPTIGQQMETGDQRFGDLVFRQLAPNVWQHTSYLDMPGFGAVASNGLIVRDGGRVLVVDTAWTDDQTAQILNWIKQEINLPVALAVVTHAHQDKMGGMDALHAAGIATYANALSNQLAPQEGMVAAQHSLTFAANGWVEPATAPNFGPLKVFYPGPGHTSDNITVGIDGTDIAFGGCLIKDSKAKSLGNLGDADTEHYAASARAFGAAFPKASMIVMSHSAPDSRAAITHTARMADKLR
Method: as §1, §2

[19] = tested on: CC(=O)OCC1=C(C(=O)O)N2C(=O)[C@@H](NC(=O)Cc3cccs3)[C@H]2SC1; test: purified protein, by the assay type; settings: 37.0 °C
[20] = tested on: E. aerogenes clinical isolate, overproduction chromosomal AmpC; test: Susceptibility testing (MIC), synergy with ceftazidime; format: cell-based; settings: antibiotic:inhibitor 1:1 (w/w)
Method: as §4, §5

[21] = tested on: E. cloacae clinical isolate, overproduction chromosomal AmpC; test: as above; format: cell-based; settings: for MIC of ceftazidime (CAZ) in combination with compound: overproduction chromosomal AmpC, antibiotic:inhibitor 1:1 (w/w)
Method: as §4, §5

[22] = other: β-lactam substrate of CTX-M-15, enzyme 0.067 µM
[23] = other: β-lactam substrate of AmpC, enzyme 0.019 µM
[24] = other: β-lactam substrate of OXA-24, enzyme 0.035 µM

Compound | IC50 [1] | IC50 [2] | IC50 [3] [µM] | IC50 [4] | MIC of ceftazidime (CAZ) in combination with compound [5] [µg/mL] | MIC of ceftazidime (CAZ) in combination with compound [6] [µg/mL] | MIC of ceftazidime (CAZ) in combination with compound [7] [µg/mL] | MIC of ceftazidime (CAZ) in combination with compound [8] [µg/mL] | MIC of ceftazidime (CAZ) in combination with compound [9] [µg/mL] | MIC of ceftazidime (CAZ) in combination with compound [10] [µg/mL] | MIC of ceftazidime (CAZ) in combination with compound [11] [µg/mL] | MIC of cefotaxime (CTX) in combination with compound [12] [µg/mL] | MIC of cefotaxime (CTX) in combination with compound [13] [µg/mL] | MIC of cefotaxime (CTX) in combination with compound [14] [µg/mL] | MIC of cefotaxime (CTX) in combination with compound [15] [µg/mL] | MIC of cefotaxime (CTX) in combination with compound [16] [µg/mL] | IC50 [17] [µM] | IC50 [18] [µM] | MIC of ceftazidime (CAZ) in combination with compound [20] [µg/mL] | MIC of ceftazidime (CAZ) in combination with compound [21] [µg/mL] | also measured
CC(C)(C)OC(=O)c1cccc2cc(B3OC(C)(C)C(C)(C)O3)sc12 [Compound 4] | 3.88 µM and 3.9 µM | 4.49 µM and 4.5 µM | 38 ± 7.64 | 8.22 µM and 5.4 µM | 512 | 512 | 32 | 4 | 32 | 64 | 64 | 64 | 4 | 1024 | 64 | 1024 | 20.2 ± 0.07 | 35.7 ± 7.46 |  |  | 
CTX-M-15 (Escherichia coli) |  |  |  |  |  |  |  |  |  |  |  |  |  |  |  |  |  |  |  |  | Km [19, 22]: 41 ± 3 µM; kcat [19, 22]: 35 ± 7 s⁻¹; kcat/Km [19, 22]: 850000 M⁻¹ s⁻¹
Cc1ccc2sc(B3OC(C)(C)C(C)(C)O3)cc2c1 [Compound 1] | 0.4 ± 0.08 µM | 6.4 ± 1.52 µM | 113 ± 14.6 | 5.9 ± 1.64 µM | 16 | 64 | 4 | 4 | 8 | 16 | 4 | 64 | 4 | 1024 | 64 | 1024 | 72 ± 14.7 | 68.4 ± 14 | 4 | 64 | MIC decrease of CAZ (fold) / synergy ([21]; CAZ combination): 4 fold; MIC reduction of CAZ (fold) ([6]; DHA-1-producing E. coli strain, CAZ combination): 8 fold; MIC reduction of CTX (fold) ([13]; K. pneumoniae producing KPC-2, CTX combination): 32 fold
CC1(C)OB(c2cc3cc(CBr)ccc3s2)OC1(C)C [Compound 2] | 0.2 ± 0.04 µM | 8.3 ± 1.09 µM | 93 ± 18.4 | 4.7 ± 2.04 µM | 16 | 32 | 4 | 2 | 8 | 16 | 4 | 64 | 4 | 1024 | 64 |  | 83.5 ± 3.35 | 64.6 ± 7.88 | 4 |  | 
NCc1ccc2sc(B(O)O)cc2c1 [Compound 3] | 0.16 ± 0.06 µM | 5.2 ± 1.42 µM | 132 ± 20.9 | 7.3 ± 1.82 µM | 16 | 512 | 64 | 4 | 4 | 64 | 64 | 64 | 4 | 32 | 64 | 8 | 26.9 ± 7.07 | 60.7 ± 11.8 |  | 64 | 
AmpC (Pseudomonas aeruginosa PAO1) |  |  |  |  |  |  |  |  |  |  |  |  |  |  |  |  |  |  |  |  | Km [19, 23]: 33 ± 2 µM; kcat [19, 23]: 159 ± 32 s⁻¹; kcat/Km [19, 23]: 4.82e+06 M⁻¹ s⁻¹
OXA-24 (Acinetobacter baumannii) |  |  |  |  |  |  |  |  |  |  |  |  |  |  |  |  |  |  |  |  | Km [19, 24]: 20 ± 2 µM; kcat [19, 24]: 1000 ± 150 s⁻¹; kcat/Km [19, 24]: 5e+07 M⁻¹ s⁻¹
CC(C)(C)OC(=O)Nc1cccc2cc(B(O)O)sc12 [Compound 6] | 4.4 ± 0.83 µM | 9.8 ± 3.34 µM | 88 ± 14 | 2.25 µM and 2.3 µM | 64 | 512 | 64 | 4 | 64 | 64 | 64 | 16 | 4 | 64 | 16 |  | 103 ± 14.2 | 117 ± 9.72 |  | 64 | 
CC1(C)OB(c2cc3cccc(C(=O)O)c3s2)OC1(C)C [Compound 5] | 1.3 ± 0.01 µM | 9.4 ± 3.48 µM | 23 ± 4.38 | 5.38 µM and 8.2 µM | 64 | 512 | 16 | 4 | 32 | 16 | 32 | 16 | 4 | 1024 | 16 | 1024 | 27.7 ± 3.65 | 32.4 ± 7.14 | 32 | 64 | MIC reduction of CTX (fold) ([12]; E. coli producing CTX-M-15, CTX combination): 4 fold
